Source: patent US8124605B2, “Compositions and methods for modulating a kinase cascade” (Kinex Pharmaceuticals, LLC, priority 2007, dated 2012)

Experiments:
Format in all cases: cell-based
[1] = system: SYF/c-Src527F cell line; assay: Cell proliferation assay (MTT assay), GI50; conditions: Mus musculus, 72 h, 3 days incubation
Protocol: (§1) The GI50s for several of the compounds of the invention are assayed as described herein.
(§2) Cell line and culture media—the human colon tumor cell line HT-29 was obtained from Dr. Irwin Gelman (Roswell Park Cancer Institute, Buffalo, N.Y.) and maintained in McCoy's 5A medium supplemented with 2% fetal bovine serum and penicillin-streptomycin. SYF/c-Src527F cell line was also obtained from Dr. Irwin Gelman and maintained in Dulbecco's modified Eagle's medium (DMEM) supplemented with 2% bovine serum and penicillin-streptomycin. Both cell lines were incubated in an atmosphere containing 5% CO2 at 37° C.
(§3) Cell proliferation assay (MTT assay)-HT-29 (7,000 cells) and SYF/c-Src527F (4,000 cells) cells were plated in 120 μl of culture medium per well of 96-well plate. Cells were incubated overnight before drug treatment. Test compounds were diluted in culture medium in a separate 96-well plate to yield 10× concentrations of test dose (50 nM, 500 nM, 5 μM, 50 μM, and 500 μM). 13.3 μl of the 10× compound was added to each well of cells to achieve the final test concentrations (5 nM, 50 nM, 500 nM, 5 μM and 50 μM). After 3 days incubation, 10 μl of MTT (Thiazolyl Blue Tetrazolium Bromide, 5 mg/ml in PBS) was added to each well and incubate for 3 hours at 37° C. After removal of culture medium, 100 μl of isopropanol containing 40 mM HCl was added to each well and incubate for 10 minutes on a shaker to dissolve the MTT formazan. Optical density (OD) at 570 nm was then measured using microplate reader and cell growth inhibition (percentage of growth) by each concentration of drug was calculated as: % growth=100×[(T−T0)/(C−T0)] (T: OD of the test well exposure to test drug; C: OD of the control well without drug treatment; T0: OD at time zero). Growth inhibition curves and GI50 were determined using GraphPad Prism 5 statistical software.

[2] = system: human colon tumor cell line HT-29; assay: Cell proliferation assay (MTT assay), GI50; conditions: HT-29, 72 h, 3 days incubation, read-out: GI50 HT29
Protocol: as §1, §2, §3

[3] = molecular target: T1, JAK3 (Homo sapiens, UniProt P52333); assay: JAK phosphorylation/activation by flow cytometry, pSTAT5 staining in IL-4 stimulated U-937 cells; conditions: drug 30 min, then IL-4
T1 construct: U-937 cells, histiocytic lymphoma cell line; endogenous in cells; host or cells: U-937 (ATCC CRL-1593.2)
T1 sequence (P52333 1-1124): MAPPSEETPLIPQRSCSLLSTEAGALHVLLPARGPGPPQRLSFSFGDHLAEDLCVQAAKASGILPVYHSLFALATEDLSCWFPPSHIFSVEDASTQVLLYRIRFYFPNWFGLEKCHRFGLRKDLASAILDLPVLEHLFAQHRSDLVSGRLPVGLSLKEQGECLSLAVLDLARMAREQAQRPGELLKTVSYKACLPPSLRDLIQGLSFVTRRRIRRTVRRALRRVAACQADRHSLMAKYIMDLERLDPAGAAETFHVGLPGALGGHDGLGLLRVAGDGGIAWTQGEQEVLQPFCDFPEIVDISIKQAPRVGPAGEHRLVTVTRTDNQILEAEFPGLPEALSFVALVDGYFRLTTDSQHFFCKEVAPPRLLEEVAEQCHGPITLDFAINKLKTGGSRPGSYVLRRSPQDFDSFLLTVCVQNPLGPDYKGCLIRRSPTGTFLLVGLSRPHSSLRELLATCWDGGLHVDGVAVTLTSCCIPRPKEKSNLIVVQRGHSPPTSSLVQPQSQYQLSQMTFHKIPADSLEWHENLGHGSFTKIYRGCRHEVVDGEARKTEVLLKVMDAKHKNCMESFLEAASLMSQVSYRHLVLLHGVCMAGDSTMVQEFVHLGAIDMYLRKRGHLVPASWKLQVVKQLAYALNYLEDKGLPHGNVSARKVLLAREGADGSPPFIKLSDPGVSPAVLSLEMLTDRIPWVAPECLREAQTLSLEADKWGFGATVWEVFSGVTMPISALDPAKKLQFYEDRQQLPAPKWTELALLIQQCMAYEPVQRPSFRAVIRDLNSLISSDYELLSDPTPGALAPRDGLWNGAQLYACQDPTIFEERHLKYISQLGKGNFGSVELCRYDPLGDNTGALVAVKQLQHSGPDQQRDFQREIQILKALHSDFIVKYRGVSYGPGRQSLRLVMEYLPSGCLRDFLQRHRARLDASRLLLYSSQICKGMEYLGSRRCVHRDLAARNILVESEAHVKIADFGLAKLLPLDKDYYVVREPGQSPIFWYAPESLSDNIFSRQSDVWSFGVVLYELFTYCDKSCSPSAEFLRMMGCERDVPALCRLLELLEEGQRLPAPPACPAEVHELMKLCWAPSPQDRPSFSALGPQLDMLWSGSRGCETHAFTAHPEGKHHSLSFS
Protocol: (§4) The protocol used to analyze the effect of compounds of the invention on JAK phosphorylation/activation is adapted from: Krutzik and Nolan, Cytometry Part A 55A:61-70 (2003).
(§5) Briefly, U-937 cells, histiocytic lymphoma cell line; ATCC No. CRL-1593.2, were treated with compounds of the invention or commercial JAK inhibitors. Cells were then stimulated with IL-4, to engage the JAK/STAT signaling pathway. Cells were fixed with formaldehyde to “freeze” the phosphorylation states of intracellular proteins. Cells were next permeabilized, and stained with mAbs directed against the phosphorylated STAT (pSTAT) proteins. The positive shift in fluorescence due to pSTAT staining serves as a surrogate to JAK phosphorylation/activation: no flow cytometric mAbs specific to JAKs exist, so the proximal downstream signaling event, STAT phosphorylation, is measured. A decrease in fluorescence, due to drug incubation prior to IL-4 stimulation, is an indirect indication of JAK inhibition. The following antibodies were used: apSTAT5-PE: monoclonal antibody to the intracellular STAT5a protein phosphorylated at Tyrosine 694; conjugated to the fluorochrome phycoerythrin (PE); BD No. 612567 and apSTAT6-Alex647: monoclonal antibody to the intracellular STAT6 protein phosphorylated at Tyrosine 641; conjugated to the fluorochrome Alexa Fluor 647; BD No. 612601. The detailed protocol is described below:
(§6) Resuspend U-937 cells @ 8×10^5 cells/mL in complete culture medium (RPMI-1640/10% FBS).
(§7) Add 0.5 mL cell suspension to each well of 24-well tissue culture plate.
(§8) Add drug treatment (compounds, controls) for 30 min @ 37° C., 5% CO2.
(§9) Add cytokine/growth factor to stimulate; 15-30 min @ 37° C. (1 μL/0.5 mL cell suspension; IL-4, IL-2, IL-15=20 ng/mL)
(§10) Transfer cells to 5 mL Flow tubes.
(§11) Add 16% Formaldehyde directly to cell culture to obtain final concentration of 1.5% formaldehyde. (47 μL formaldehyde+0.5 mL cell culture)
(§12) Incubate cells in fixative for 15 min @ 37° C., 5% CO2.
(§13) Add 3 mL cold “Staining Media” (PBS/1% BSA) to each tube; centrifuge cells @ 1100 RPM, 3 min. Discard supernatant.
(§14) Resuspend cells with vigorous vortexing in 200 μL ice-cold Methanol.
(§15) Incubate cells on ice, 30 min.
(§16) Wash cells twice in 2 mL “Staining Medium” (centrifuge cells @ 1100 RPM, 3 min). Discard supernatant.
(§17) Add 8 μL of fluorophore-conjugated, phosphoprotein-specific mAbs to cells. Incubate cells at RT, 60 min, in the dark.
(§18) Wash cells with 4 mL Staining Media. Centrifuge cells @ 1100 RPM, 3 min. Discard supernatant.
(§19) Resuspend cells in 350 μL Staining Media.
(§20) Acquire cellular events on BD FACSCalibur cytometer.

[4] = molecular target: T2, JAK1 (Homo sapiens, UniProt P23458); assay: JAK phosphorylation/activation by flow cytometry, pSTAT6 staining in IL-4 stimulated U-937 cells; conditions: drug 30 min, then IL-4
T2 construct: U-937 cells, histiocytic lymphoma cell line; endogenous in cells; host or cells: U-937 (ATCC CRL-1593.2)
T2 sequence (P23458 whole entry): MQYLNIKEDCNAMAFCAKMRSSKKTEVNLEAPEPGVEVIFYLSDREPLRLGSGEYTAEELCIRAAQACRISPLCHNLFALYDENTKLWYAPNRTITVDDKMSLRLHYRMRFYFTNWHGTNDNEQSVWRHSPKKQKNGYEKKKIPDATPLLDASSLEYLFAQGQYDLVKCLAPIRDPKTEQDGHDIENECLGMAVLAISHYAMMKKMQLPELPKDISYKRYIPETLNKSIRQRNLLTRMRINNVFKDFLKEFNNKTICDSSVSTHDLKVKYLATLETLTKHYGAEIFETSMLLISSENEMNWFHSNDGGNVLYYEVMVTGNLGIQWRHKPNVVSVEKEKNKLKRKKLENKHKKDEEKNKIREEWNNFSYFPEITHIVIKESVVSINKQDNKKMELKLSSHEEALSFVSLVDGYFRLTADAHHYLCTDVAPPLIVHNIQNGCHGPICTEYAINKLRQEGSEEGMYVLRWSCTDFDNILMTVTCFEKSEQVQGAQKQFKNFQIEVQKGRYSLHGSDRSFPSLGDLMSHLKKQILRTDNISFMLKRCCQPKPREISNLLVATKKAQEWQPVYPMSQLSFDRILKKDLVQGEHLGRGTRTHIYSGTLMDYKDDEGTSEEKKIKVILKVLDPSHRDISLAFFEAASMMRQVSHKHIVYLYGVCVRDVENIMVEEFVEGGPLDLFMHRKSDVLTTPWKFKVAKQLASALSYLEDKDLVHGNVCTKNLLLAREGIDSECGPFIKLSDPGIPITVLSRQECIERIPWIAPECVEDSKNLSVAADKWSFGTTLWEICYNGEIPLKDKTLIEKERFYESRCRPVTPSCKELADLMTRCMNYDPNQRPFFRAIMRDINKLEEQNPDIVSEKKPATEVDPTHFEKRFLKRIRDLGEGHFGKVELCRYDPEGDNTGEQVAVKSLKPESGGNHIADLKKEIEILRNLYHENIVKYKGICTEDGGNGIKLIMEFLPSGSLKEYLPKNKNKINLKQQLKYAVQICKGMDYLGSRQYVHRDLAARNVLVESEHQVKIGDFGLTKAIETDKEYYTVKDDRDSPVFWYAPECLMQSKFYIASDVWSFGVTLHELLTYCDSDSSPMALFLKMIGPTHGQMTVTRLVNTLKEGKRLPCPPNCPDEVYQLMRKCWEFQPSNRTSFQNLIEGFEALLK
Protocol: as §4, §5, §6, §7, §8, §9, §10, §11, §12, §13, §14, §15, §16, §17, §18, §19, §20

Structure (SMILES) | GI50 [2] | JAK3 pStat5-PE Signal [3] | JAK3 pStat5-PE Signal/Background [3] | JAK1 pStat6-Alexa647 Signal [4] | JAK1 pStat6-Alexa647 Signal/Background [4] | GI50 [1]
O=C(NCc1ccccc1)Nc1ccc(-c2ccccc2)cn1 [Compound 129] | 5.4 µM | 4.15 | 1.42 | 23.06 | 5.51 | 24.7 µM
O=S(=O)(Cc1ccc(Br)cc1)NCc1ccc(-c2ccccc2)cc1 [Compound 134] | 5.6 µM | 3.66 | 1.25 | 21.47 | 5.14 | 4.9 µM
COc1cc2ncnc(Nc3ccc(O)cc3)c2cc1OC [WHI-P131] |  | 3.19 | 1.09 | 33.80 | 8.09 | 
O=S(=O)(CCc1ccccc1)Cc1ccc(-c2ccccc2)cc1 [Compound 139] | 2.9 µM | 4.41 | 1.51 | 25.08 | 6.00 | 2.2 µM
COc1cc2ncnc(Nc3ccc(O)c(Br)c3)c2cc1OC [WHI-P154] |  | 1.63 | 0.56 | 14.54 | 3.48 | 
O=S(=O)(Cc1ccc(-c2ccccc2)cc1)NCc1ccccc1 [Compound 138] | 13.9 µM | 4.10 | 1.40 | 28.65 | 6.85 | 1.4 µM
O=C(NCc1ccccc1)Oc1ccc(-c2ccccc2)cc1 [Compound 130] | 27.1 µM | 5.21 | 1.78 | 31.77 | 7.60 | 7.6 µM
[O-][S+](CCc1ccccc1)Cc1ccc(-c2ccccc2)cc1 (centres unmarked) [Compound 137] | 1.8 µM | 3.71 | 1.27 | 22.03 | 5.27 | 0.97 µM
O=C(NCCc1ccc(-c2ccccc2)cc1)c1ccccc1 [Compound 126] | 2.8 µM | 5.34 | 1.82 | 30.85 | 7.38 | 3.1 µM
c1ccc(CNCCc2ccc(-c3ccccc3)cc2)cc1 [Compound 127] | 3.3 µM | 3.38 | 1.15 | 18.81 | 4.50 | 1.4 µM
c1ccc(CCSCc2ccc(-c3ccccc3)cc2)cc1 [Compound 135] | 9.7 µM | 3.48 | 1.19 | 17.15 | 4.10 | 18.6 µM

Continued, in another order:

GI50 [2] | JAK3 pStat5-PE Signal [3] | JAK3 pStat5-PE Signal/Background [3] | JAK1 pStat6-Alexa647 Signal [4] | JAK1 pStat6-Alexa647 Signal/Background [4] | Structure (SMILES) | GI50 [1]
0.026 µM |  |  |  |  | O=C(Cc1ccc(-c2ccc(OCCN3CCOCC3)cc2)cn1)NCc1ccccc1 [drawing 587] | 0.023 µM
5.7 µM | 3.36 | 1.27 | 14.48 | 3.81 | O=C(CCc1ccccc1)Cc1ccc(-c2ccccc2)cn1 [Compound 150] | 20.8 µM
0.46 µM | 4.58 | 1.56 | 29.48 | 7.05 | O=C(Cc1ccccc1)NCc1ccc(-c2ccccc2)cc1 [Compound 125] | 0.75 µM
 | 4.12 | 1.41 | 23.79 | 5.69 | O=C(Cc1ccc(-c2ccccc2)cc1)NCc1cccc(F)c1 [Control A] | 
62.9 µM | 3.24 | 1.22 | 15.35 | 4.04 | O=C(Cc1ccccc1)NCc1ccc(OCc2ccccc2)cc1 [Compound 163] | 275 µM
0.27 µM |  |  |  |  | O=C(Cc1ccc(-c2ccccc2)cc1)NCc1cccc(F)c1 [drawing 586] | 0.46 µM
2.1 µM | 3.02 | 1.14 | 13.76 | 3.62 | O=C(Cc1ccccc1)NCc1ccc(-c2ccccc2)cn1 [Compound 140] | 11.8 µM
 | 3.42 | 1.17 | 19.03 | 4.55 | O=C(Cc1ccc(-c2ccc(OCCN3CCOCC3)cc2)cn1)NCc1ccccc1 [Control B] | 
